molecular target: SIK2 (Homo sapiens, UniProt Q9H0K1); test: SIK2 Enzymatic Assay High Version 2 (High ATP); type: biochemical; conditions: not given
Summary of the method: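 At room temperature, enzyme (6 nM, 2× final) was preincubated with compound for 30 min, then 6 mM ATP and 400 μM HDAC5tide (both 2× final) were added for 2 h. ADP formed was measured by ADP-Glo Max (2 h reagent, 1 h detection) using luminescence.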

SIK2, sequence (Q9H0K1 whole entry, species assumed): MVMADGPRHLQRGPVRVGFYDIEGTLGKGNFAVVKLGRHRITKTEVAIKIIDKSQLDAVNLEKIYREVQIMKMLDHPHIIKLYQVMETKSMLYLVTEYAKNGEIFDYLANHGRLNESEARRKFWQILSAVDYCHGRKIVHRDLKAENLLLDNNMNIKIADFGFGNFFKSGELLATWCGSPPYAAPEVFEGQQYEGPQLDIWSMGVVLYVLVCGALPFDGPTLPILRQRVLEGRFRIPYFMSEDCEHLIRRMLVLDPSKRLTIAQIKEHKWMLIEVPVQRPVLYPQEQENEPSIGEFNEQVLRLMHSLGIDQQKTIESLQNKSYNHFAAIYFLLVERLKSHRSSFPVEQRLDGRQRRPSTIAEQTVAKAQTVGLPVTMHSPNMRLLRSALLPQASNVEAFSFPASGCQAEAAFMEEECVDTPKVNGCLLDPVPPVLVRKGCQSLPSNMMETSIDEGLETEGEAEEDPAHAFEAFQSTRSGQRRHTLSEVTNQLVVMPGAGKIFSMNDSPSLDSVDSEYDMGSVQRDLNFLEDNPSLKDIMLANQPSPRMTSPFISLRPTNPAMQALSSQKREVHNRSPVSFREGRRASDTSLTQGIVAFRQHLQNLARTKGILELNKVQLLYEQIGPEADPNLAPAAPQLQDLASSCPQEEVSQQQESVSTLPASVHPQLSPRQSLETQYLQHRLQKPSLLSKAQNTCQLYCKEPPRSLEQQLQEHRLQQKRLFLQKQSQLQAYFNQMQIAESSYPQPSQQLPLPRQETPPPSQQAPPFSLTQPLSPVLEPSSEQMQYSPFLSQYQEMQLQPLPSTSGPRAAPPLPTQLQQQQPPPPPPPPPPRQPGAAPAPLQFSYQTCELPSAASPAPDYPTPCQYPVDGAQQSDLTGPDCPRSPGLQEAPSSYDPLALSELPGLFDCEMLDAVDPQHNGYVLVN

| Structure (SMILES) | IC50 [µM] |
| --- | --- |
| CNC(=O)c1ccc(Nc2cc3cc(-c4cc(C)ncc4O[C@H]4C[C@H]5COC[C@@H](C4)N5CC(C)(C)O)ccn3n2)nc1 [Example 532, 6-[[5-[5-[[(1S,5R)-9-(2-hydroxy-2-methyl-propyl)-3-oxa-9-azabicyclo[3.3.1]nonan-7-yl]oxy]-2-methyl-4-pyridyl]pyrazolo[1,5-a]pyridin-2-yl]amino]-N-methyl-pyridine-3-carboxamide] | 0.0135 |
| Cc1cc(-c2ccn3nc(NC(=O)C4(F)CC4)cc3c2)c(OC[C@H]2CCN2C)cn1 [Example 623, 1-fluoro-N-[5-[2-methyl-5-[[(2R)-1-methylazetidin-2-yl]methoxy]-4-pyridyl]pyrazolo[1,5-a]pyridin-2-yl]cyclopropanecarboxamide] | 0.00644 |
| CCNC(=O)c1ccc(Nc2cc3cc(-c4cc(C)ncc4O[C@H]4C[C@H]5COC[C@@H](C4)N5)ccn3n2)nc1 [Example 384, N-ethyl-6-[[5-[2-methyl-5-[[(1S,5R,7s)-3-oxa-9-azabicyclo[3.3.1]nonan-7-yl]oxy]-4-pyridyl]pyrazolo[1,5-a]pyridin-2-yl]amino]pyridine-3-carboxamide] | 0.000889 |
| Cc1cc(-c2cn3cc(Nc4cc(C)nc(C)n4)nc3cn2)c(O[C@H]2C[C@H]3COC[C@@H](C2)N3)cn1 [Example 350, N-(2,6-dimethylpyrimidin-4-yl)-6-[2-methyl-5-[[(1R,5S)-3-oxa-9-azabicyclo[3.3.1]nonan-7-yl]oxy]-4-pyridyl]imidazo[1,2-a]pyrazin-2-amine] | 0.0403 |
| Cc1cc(-c2ccn3nc(Nc4cnn(C)c4)cc3c2)c(O[C@H]2C[C@H]3COC[C@@H](C2)N3)cn1 [Example 123, 7-endo-5-[2-methyl-5-[[(1S,5R)-3-oxa-9-azabicyclo[3.3.1]nonan-7-yl]oxy]-4-pyridyl]-N-(1-methylpyrazol-4-yl)pyrazolo[1,5-a]pyridin-2-amine] | 0.00094 |
| CNC(=O)c1ccnc(Nc2cc3cc(-c4cc(C)ncc4O[C@H]4C[C@H]5COC[C@@H](C4)N5C(C)=O)ccn3n2)c1 [Example 631, 2-((5-(5-(((1R,5S,7s)-9-acetyl-3-oxa-9-azabicyclo[3.3.1]nonan-7-yl)oxy)-2-methylpyridin-4-yl)pyrazolo[1,5-a]pyridin-2-yl)amino)-N-methylisonicotinamide] | 0.0771 |
| Cc1cc(Nc2cc3cc(-c4cc(C(F)(F)F)ncc4OC[C@H]4CCN4C)ccn3n2)nc(C)n1 [Example 625, N-(2,6-dimethylpyrimidin-4-yl)-5-[5-[[(2R)-1-methylazetidin-2-yl]methoxy]-2-(trifluoromethyl)-4-pyridyl]pyrazolo[1,5-a]pyridin-2-amine] | 0.73 |
| Cc1cc(-c2ccn3nc(Nc4cccnn4)cc3c2)c(O[C@H]2C[C@H]3COC[C@@H](C2)N3)cn1 [Example 394, 5-[2-methyl-5-[[(1R,5S,7s)-3-oxa-9-azabicyclo[3.3.1]nonan-7-yl]oxy]-4-pyridyl]-N-pyridazin-3-yl-pyrazolo[1,5-a]pyridin-2-amine] | < 0.000847 |
| [2H]C([2H])([2H])N1CC[C@@H]1COc1cnc(C)cc1-c1ccn2nc(NC(=O)C3CC3)cc2c1 [Example 576, N-[5-[2-methyl-5-[[(2R)-1-(trideuteriomethyl)azetidin-2-yl]methoxy]-4-pyridyl]pyrazolo[1,5-a]pyridin-2-yl]cyclopropanecarboxamide] | 0.0728 |
| Cc1cc(-c2ccn3nc(Nc4cc(C)nc(C)n4)cc3c2)c(O[C@H]2C[C@H]3COC[C@@H](C2)N3C)cn1 [Example 417, N-(2,6-dimethylpyrimidin-4-yl)-5-[2-methyl-5-[[(1S,5R,7s)-9-methyl-3-oxa-9-azabicyclo[3.3.1]nonan-7-yl]oxy]-4-pyridyl]pyrazolo[1,5-a]pyridin-2-amine] | < 0.000847 |

same assay, conditions: enzyme 6 nM, 6 mM ATP and 400 μM HDAC5tide (each 2× final concentration); 30 minutes pre-incubation, 2 hours; ADP-Glo Max luminescence; read-out: SIK2 high ATP IC50 (μM) (Test Example 2)

| IC50 [µM] | Structure (SMILES) |
| --- | --- |
| 0.0571 | Cc1cc(Nc2cc3cc(-c4cc(C#N)ccc4OCC(C)(C)O)ccn3n2)nc(C)n1 [Example 484, 3-[2-[(2,6-dimethylpyrimidin-4-yl)amino]pyrazolo[1,5-a]pyridin-5-yl]-4-(2-hydroxy-2-methyl-propoxy)benzonitrile] |
| 0.0152 | CN1CC(Oc2cnc(Cl)cc2-c2ccn3nc(NC(=O)C4CC4)cc3c2)C1 [Example 491, N-[5-[2-chloro-5-(1-methylazetidin-3-yl)oxy-4-pyridyl]pyrazolo[1,5-a]pyridin-2-yl]cyclopropanecarboxamide] |
| 0.015 | COc1cc(Nc2cc3cc(-c4cc(C)ncc4O[C@H]4CC[C@H](O)CC4)ccn3n2)cc(OC)c1C(=O)N(C)C [Example 332, 4-[[5-[5-(4-hydroxycyclohexoxy)-2-methyl-4-pyridyl]pyrazolo[1,5-a]pyridin-2-yl]amino]-2,6-dimethoxy-N,N-dimethyl-benzamide] |
| 0.0279 | Cc1cc(C(=O)NCC(C)(C)O)cc(Nc2cc3cc(-c4cc(OC(F)F)ncc4OCC(C)(C)C#N)ccn3n2)n1 [Example 701, 2-[[5-[5-(2-cyano-2-methyl-propoxy)-2-(difluoromethoxy)-4-pyridyl]pyrazolo[1,5-a]pyridin-2-yl]amino]-N-(2-hydroxy-2-methyl-propyl)-6-methyl-pyridine-4-carboxamide] |
| 0.149 | Cc1cc(Nc2cc3cc(-c4cc(C)ncc4OCC(C)(C)O)ccn3n2)nc(C(=O)NC2CC2)c1 [Example 638, N-cyclopropyl-6-[[5-[5-(2-hydroxy-2-methyl-propoxy)-2-methyl-4-pyridyl]pyrazolo[1,5-a]pyridin-2-yl]amino]-4-methyl-pyridine-2-carboxamide] |
| 0.00801 | Cc1cc(-c2ccn3nc(Nc4cnccn4)cc3c2)c(OC[C@H]2CNCCO2)cn1 [Example 430, 5-[2-methyl-5-[[(2R)-morpholin-2-yl]methoxy]-4-pyridyl]-N-pyrazin-2-yl-pyrazolo[1,5-a]pyridin-2-amine] |
| 0.0138 | Cc1cc(-c2ccn3nc(Nc4cc(C)nc(N5CCOCC5)n4)cc3c2)c(OC[C@H]2OCC[C@@H]2O)cn1 [Example 294, (2R,3S)-2-[[6-methyl-4-[2-[(6-methyl-2-morpholino-pyrimidin-4-yl)amino]pyrazolo[1,5-a]pyridin-5-yl]-3-pyridyl]oxymethyl]tetrahydrofuran-3-ol] |
| 0.00712 | CCn1nc(Nc2cc3cc(-c4cc(C)ncc4OCC(C)(C)O)ccn3n2)cc(C)c1=O [Example 247, 2-ethyl-6-[[5-[5-(2-hydroxy-2-methyl-propoxy)-2-methyl-4-pyridyl]pyrazolo[1,5-a]pyridin-2-yl]amino]-4-methyl-pyridazin-3-one] |

Continued, compound first:

| Structure (SMILES) | IC50 [µM] |
| --- | --- |
| CC(C)(C#N)COc1cnc(OC(F)F)cc1-c1ccn2nc(Nc3ccc(CN4CCOCC4)cn3)cc2c1 [Example 695, 3-[[6-(difluoromethoxy)-4-[2-[[5-(morpholinomethyl)-2-pyridyl]amino]pyrazolo[1,5-a]pyridin-5-yl]-3-pyridyl]oxy]-2,2-dimethyl-propanenitrile] | 0.117 |
| CCNc1nc(Nc2cc3cc(-c4cc(OC(F)F)ncc4OCC(C)(C)C#N)ccn3n2)cc(C(F)(F)F)n1 [Example 700, 3-[[6-(difluoromethoxy)-4-[2-[[2-(ethylamino)-6-(trifluoromethyl)pyrimidin-4-yl]amino]pyrazolo[1,5-a]pyridin-5-yl]-3-pyridyl]oxy]-2,2-dimethyl-propanenitrile] | 0.00786 |
| Cc1cc(Nc2cc3cc(-c4cc(OCCF)ncc4OCC(C)(C)C#N)ccn3n2)nc(C)n1 [Example 673, 3-[[4-[2-[(2,6-dimethylpyrimidin-4-yl)amino]pyrazolo[1,5-a]pyridin-5-yl]-6-(2-fluoroethoxy)-3-pyridyl]oxy]-2,2-dimethyl-propanenitrile] | 0.00229 |

From patent US20240158392A1 (Janssen Biotech, Inc., priority 2021, published 2024)
